Data: ChEMBL document CHEMBL1158007, “Steroidal glycosides from the bulbs of Allium jesdianum” (J Nat Prod, 1999)

Key:
Format in all cases: functional
NCI-H226 = assay: Growth inhibition of human NCI-H226 cells after 72 hrs by MTT assay; conditions: NCI-H226, 72 h
NCI-H322M = assay: Growth inhibition of human NCI-H322M cells after 72 hrs by MTT assay
EKVX = assay: Growth inhibition of human EKVX cells after 72 hrs by MTT assay
UACC-62 = assay: Growth inhibition of human UACC-62 cells after 72 hrs by MTT assay; conditions: UACC-62, 72 h
HCT-15 = assay: Growth inhibition of human HCT-15 cells after 72 hrs by MTT assay; conditions: HCT-15, 72 h
SN12C = assay: Growth inhibition of human SN12C cells after 72 hrs by MTT assay; conditions: read-out: LC50 (the source's name)
A498 = assay: Growth inhibition of human A498 cells after 72 hrs by MTT assay; conditions: A498, 72 h
[1] = Growth inhibition of human Hs 578T cells after 72 hrs by MTT assay
DU-145 = assay: Growth inhibition of human DU-145 cells after 72 hrs by MTT assay; conditions: DU-145, 72 h
KM12 = assay: Growth inhibition of human KM12 cells after 72 hrs by MTT assay; conditions: KM12, 72 h
SF-295 = assay: Growth inhibition of human SF-295 cells after 72 hrs by MTT assay; conditions: SF-295, 72 h
OVCAR-8 = assay: Growth inhibition of human OVCAR8 cells after 72 hrs by MTT assay; conditions: OVCAR-8, 72 h
UACC-257 = assay: Growth inhibition of human UACC-257 cells after 72 hrs by MTT assay; conditions: UACC-257, 72 h
HOP-62 = assay: Growth inhibition of human HOP-62 cells after 72 hrs by MTT assay; conditions: HOP-62, 72 h
HCC 2998 = assay: Growth inhibition of human HCC2998 cells after 72 hrs by MTT assay; conditions: HCC 2998, 72 h
SK-MEL-2 = assay: Growth inhibition of human SK-MEL-2 cells after 72 hrs by MTT assay; conditions: SK-MEL-2, 72 h
M14 = assay: Growth inhibition of human M14 cells after 72 hrs by MTT assay; conditions: M14, 72 h
MDA-MB-435 = assay: Growth inhibition of human MDA-MB-435 cells after 72 hrs by MTT assay; conditions: MDA-MB-435, 72 h
PC-3 = assay: Growth inhibition of human PC-3 cells after 72 hrs by MTT assay; conditions: PC-3, 72 h
SK-MEL-5 = assay: Growth inhibition of human SK-MEL-5 cells after 72 hrs by MTT assay; conditions: SK-MEL-5, 72 h
OVCAR-5 = assay: Growth inhibition of human OVCAR5 cells after 72 hrs by MTT assay; conditions: OVCAR-5, 72 h
NCI-H23 = assay: Growth inhibition of human NCI-H23 cells after 72 hrs by MTT assay; conditions: NCI-H23, 72 h
MDA-N = assay: Growth inhibition of human MDA-N cells after 72 hrs by MTT assay
[2] = Growth inhibition of human HCT 116 cells after 72 hrs by MTT assay; conditions: HCT-116, 72 h
SNB-19 = assay: Growth inhibition of human SNB-19 cells after 72 hrs by MTT assay; conditions: SNB-19, 72 h
SW-620 = assay: Growth inhibition of human SW620 cells after 72 hrs by MTT assay; conditions: SW-620, 72 h
Malme-3M = assay: Growth inhibition of human MALME-3M cells after 72 hrs by MTT assay
NCI-H460 = assay: Growth inhibition of human NCI-H460 cells after 72 hrs by MTT assay; conditions: NCI-H460, 72 h
[3] = Growth inhibition of human SK MEL28 cells after 72 hrs by MTT assay; conditions: SK-MEL-28, 72 h
OVCAR-3 = assay: Growth inhibition of human OVCAR-3 cells after 72 hrs by MTT assay; conditions: OVCAR-3, 72 h
SK-OV-3 = assay: Growth inhibition of human SKOV3 cells after 72 hrs by MTT assay; conditions: SK-OV-3, 72 h
MOLT-4 = assay: Growth inhibition of human MOLT-4 cells after 72 hrs by MTT assay; conditions: MOLT-4, 72 h
IGROV-1 = assay: Growth inhibition of human IGROV1 cells after 72 hrs by MTT assay; conditions: IGROV-1, 72 h
[4] = read-out: LC50 (the source's name)

In the case of `C[C@@H]1CC[C@@]2(OC1)O[C@H]1C[C@H]3[C@@H]4CC[C@H]5C[C@@H](O[C@@H]6O[C@H](CO)[C@H](O[C@@H]7O[C@H](CO)[C@@H](O)[C@H](O[C@@H]8OC[C@@H](O)[C@H](O)[C@H]8O)[C@H]7O[C@@H]7O[C@H](CO)[C@@H](O)[C@H](O)[C@H]7O)[C@H](O)[C@H]6O)[C@H](O)C[C@]5(C)[C@H]4CC[C@]3(C)[C@H]1[C@@H]2C`, the GI50 (NCI-H226) is reported as 15 µM, the TGI (NCI-H226) is reported as 34 µM and the CC50 (NCI-H226; [4]) is reported as 76 µM. For the same compound, the GI50 (NCI-H322M) was 12 µM, the TGI (NCI-H322M) was 26 µM and the CC50 (NCI-H322M; [4]) was 55 µM. It also gave a GI50 (EKVX) of 11 µM, a TGI (EKVX) of 27 µM and a CC50 (EKVX; [4]) of 63 µM. The GI50 (UACC-62) was 17 µM, the TGI (UACC-62) was 42 µM and the CC50 (UACC-62; [4]) was < 100 µM. For the same compound, the GI50 (HCT-15) was 1.4 µM, the TGI (HCT-15) was 11 µM and the CC50 (HCT-15; [4]) was 46 µM. The CC50 (SN12C) was < 100 µM, the GI50 (A498) was 4.9 µM and the TGI (A498) was 35 µM. For the same compound, the CC50 (A498; [4]) was < 100 µM, the GI50 [1] was 17 µM and the TGI [1] was 32 µM. The CC50 [1, 4] was 63 µM, the GI50 (DU-145) was 2.4 µM and the TGI (DU-145) was 14 µM. It also gave a CC50 (DU-145; [4]) of 54 µM, a GI50 (KM12) of 8.9 µM and a TGI (KM12) of 23 µM. For the same compound, the CC50 (KM12; [4]) was 55 µM, the GI50 (SF-295) was 12 µM and the TGI (SF-295) was 49 µM. For the same compound, the CC50 (SF-295; [4]) was < 100 µM, the GI50 (OVCAR-8) was 2.5 µM and the TGI (OVCAR-8) was 6.3 µM. For the same compound, the CC50 (OVCAR-8; [4]) was 47 µM, the GI50 (UACC-257) was 17 µM and the TGI (UACC-257) was 36 µM. For the same compound, the CC50 (UACC-257; [4]) was 71 µM, the GI50 (HOP-62) was 1.2 µM and the TGI (HOP-62) was 2.8 µM. For the same compound, the CC50 (HOP-62; [4]) was 6.2 µM, the GI50 (HCC 2998) was 12 µM and the TGI (HCC 2998) was 25 µM. It also gave a CC50 (HCC 2998; [4]) of 50 µM, a GI50 (SK-MEL-2) of 5.5 µM and a TGI (SK-MEL-2) of 19 µM. It also gave a CC50 (SK-MEL-2; [4]) of 48 µM, a GI50 (M14) of 16 µM and a TGI (M14) of 35 µM. For the same compound, the CC50 (M14; [4]) was 74 µM, the GI50 (MDA-MB-435) was 11 µM and the TGI (MDA-MB-435) was 26 µM. It also gave a CC50 (MDA-MB-435; [4]) of 66 µM, a GI50 (PC-3) of 3.1 µM and a TGI (PC-3) of 15 µM. It also gave a CC50 (PC-3; [4]) of 41 µM, a GI50 (SK-MEL-5) of 4.1 µM and a TGI (SK-MEL-5) of 40 µM. The CC50 (SK-MEL-5; [4]) was < 100 µM, the GI50 (OVCAR-5) was 5 µM and the TGI (OVCAR-5) was 20 µM. The CC50 (OVCAR-5; [4]) was 59 µM, the GI50 (NCI-H23) was 2 µM and the TGI (NCI-H23) was 8.7 µM. For the same compound, the CC50 (NCI-H23; [4]) was 36 µM, the GI50 (MDA-N) was 11 µM and the TGI (MDA-N) was 28 µM. It also gave a CC50 (MDA-N; [4]) of 74 µM, a GI50 [2] of 3.9 µM and a TGI [2] of 18 µM. The CC50 [2, 4] was 81 µM, the GI50 (SNB-19) was 12 µM and the TGI (SNB-19) was 27 µM. The CC50 (SNB-19; [4]) was 60 µM, the GI50 (SW-620) was 1.7 µM and the TGI (SW-620) was 19 µM. The CC50 (SW-620; [4]) was 78 µM, the GI50 (Malme-3M) was 19 µM and the TGI (Malme-3M) was 35 µM. It also gave a CC50 (Malme-3M; [4]) of 69 µM, a GI50 (NCI-H460) of 1.3 µM and a TGI (NCI-H460) of 4.2 µM. It also gave a CC50 (NCI-H460; [4]) of 16 µM, a GI50 [3] of 15 µM and a TGI [3] of 33 µM. It also gave a CC50 [3, 4] of 71 µM, a GI50 (OVCAR-3) of 2.6 µM and a TGI (OVCAR-3) of 9.1 µM. The CC50 (OVCAR-3; [4]) was 35 µM, the GI50 (SK-OV-3) was 13 µM and the TGI (SK-OV-3) was 41 µM. The CC50 (SK-OV-3; [4]) was < 100 µM, the GI50 (MOLT-4) was 41 µM and the TGI (MOLT-4) was 97 µM. For the same compound, the CC50 (MOLT-4; [4]) was < 100 µM, the GI50 (IGROV-1) was 3.7 µM and the TGI (IGROV-1) was 17 µM. The CC50 (IGROV-1; [4]) was 48 µM.
